Reference: patent publication US9579314B2 (priority 2015, dated 2017)

Key:
Human M3 receptor = Human M3 receptor (Homo sapiens, UniProt P20309); details: read-out: M3 binding affinity
Human β2 adrenoceptor = Human β2 adrenoceptor (Homo sapiens, UniProt P07550); details: read-out: B2 binding affinity
Sequence of Human β2 adrenoceptor (P07550 whole entry): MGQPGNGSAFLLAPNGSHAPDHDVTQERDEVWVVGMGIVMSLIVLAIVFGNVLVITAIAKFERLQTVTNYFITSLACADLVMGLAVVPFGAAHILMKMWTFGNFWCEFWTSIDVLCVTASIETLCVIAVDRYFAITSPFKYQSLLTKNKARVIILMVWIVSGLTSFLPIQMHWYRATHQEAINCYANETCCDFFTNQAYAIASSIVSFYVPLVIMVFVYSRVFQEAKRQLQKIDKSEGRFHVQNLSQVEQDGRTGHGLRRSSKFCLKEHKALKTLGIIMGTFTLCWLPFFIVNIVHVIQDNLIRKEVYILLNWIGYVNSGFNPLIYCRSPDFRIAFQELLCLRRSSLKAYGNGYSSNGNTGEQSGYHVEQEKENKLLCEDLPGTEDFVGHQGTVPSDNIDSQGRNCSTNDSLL

Sequence of Human M3 receptor (P20309 whole entry): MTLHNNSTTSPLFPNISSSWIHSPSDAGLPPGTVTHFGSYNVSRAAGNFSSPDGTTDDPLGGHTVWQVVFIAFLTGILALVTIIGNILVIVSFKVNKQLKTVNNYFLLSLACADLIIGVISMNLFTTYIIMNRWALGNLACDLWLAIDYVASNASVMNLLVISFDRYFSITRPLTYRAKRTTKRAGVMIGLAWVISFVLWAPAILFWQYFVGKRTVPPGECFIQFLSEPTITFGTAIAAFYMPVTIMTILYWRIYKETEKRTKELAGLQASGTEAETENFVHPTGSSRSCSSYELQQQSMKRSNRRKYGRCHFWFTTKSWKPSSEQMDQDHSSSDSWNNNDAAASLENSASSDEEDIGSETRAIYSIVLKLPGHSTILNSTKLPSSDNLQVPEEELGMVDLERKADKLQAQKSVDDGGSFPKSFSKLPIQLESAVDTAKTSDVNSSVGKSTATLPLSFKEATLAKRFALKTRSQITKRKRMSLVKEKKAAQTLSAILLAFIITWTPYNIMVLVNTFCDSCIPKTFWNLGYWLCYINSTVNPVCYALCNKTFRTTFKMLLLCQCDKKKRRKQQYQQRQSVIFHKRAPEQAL

SMILES | IC50 (Human M3 receptor) | IC50 (Human β2 adrenoceptor)
COc1cc(C(=O)N[C@H]2C[C@H](NC(=O)COc3cccc([C@](O)(C(=O)OCC4CCN(Cc5ccccc5)CC4)c4ccccc4)c3)C2)c(F)cc1CNC[C@H](O)c1ccc(O)c2[nH]c(=O)ccc12 [Compound 142, (1-benzylpiperidin-4-yl)methyl (S)-2-(3-(2-(((1R,3S)-3-(2-fluoro-4-((((R)-2-hydroxy-2-(8-hydroxy-2-oxo-1,2-dihydroquinolin-5-yl)ethyl)amino)methyl)-5-methoxybenzamido)cyclobutyl)amino)-2-oxoethoxy)phenyl)-2-hydroxy-2-phenylacetate] | 0.3 to 3 nM | < 0.3 nM
CC(C)Oc1cc(C(=O)N[C@H]2C[C@H](NC(=O)COc3cccc([C@](O)(C(=O)OCC4CCN(Cc5ccccc5)CC4)c4ccccc4)c3)C2)ccc1CNC[C@H](O)c1ccc(O)c2[nH]c(=O)ccc12 [Compound 143, (1-benzylpiperidin-4-yl)methyl (S)-2-hydroxy-2-(3-(2-(((1R,3S)-3-(4-((((R)-2-hydroxy-2-(8-hydroxy-2-oxo-1,2-dihydroquinolin-5-yl)ethyl)amino)methyl)-3-isopropoxybenzamido)cyclobutyl)amino)-2-oxoethoxy)phenyl)-2-phenylacetate] | 0.3 to 3 nM | 0.3 to 3 nM
O=C(COc1cccc([C@](O)(C(=O)OCC2CCN(Cc3ccccc3)CC2)c2ccccc2)c1)N[C@H]1C[C@H](NC(=O)c2ccc(CNC[C@H](O)c3ccc(O)c4[nH]c(=O)ccc34)cn2)C1 [Compound 144, (1-benzylpiperidin-4-yl)methyl (S)-2-hydroxy-2-(3-(2-(((1R,3S)-3-(5-((((R)-2-hydroxy-2-(8-hydroxy-2-oxo-1,2-dihydroquinolin-5-yl)ethyl)amino)methyl)picolinamido)cyclobutyl)amino)-2-oxoethoxy)phenyl)-2-phenylacetate] | 0.3 to 3 nM | < 0.3 nM
O=C(COc1cccc([C@](O)(C(=O)OCC2CCN(Cc3ccccc3)CC2)c2ccccc2)c1)N[C@H]1C[C@H](NC(=O)c2ccc(CNC[C@H](O)c3ccc(O)c4[nH]c(=O)ccc34)nc2)C1 [Compound 145, (1-benzylpiperidin-4-yl)methyl (S)-2-hydroxy-2-(3-(2-(((1R,3S)-3-(6-((((R)-2-hydroxy-2-(8-hydroxy-2-oxo-1,2-dihydroquinolin-5-yl)ethyl)amino)methyl)nicotinamido)cyclobutyl)amino)-2-oxoethoxy)phenyl)-2-phenylacetate] | 0.3 to 3 nM | 0.3 to 3 nM
O=C(COc1cccc([C@](O)(C(=O)OCC2CCN(Cc3ccccc3)CC2)c2ccccc2)c1)N[C@H]1C[C@H](NC(=O)Cc2ccc(CNC[C@H](O)c3ccc(O)c4[nH]c(=O)ccc34)cc2)C1 [Compound 146, (1-benzylpiperidin-4-yl)methyl (S)-2-hydroxy-2-(3-(2-(((1R,3S)-3-(2-(4-((((R)-2-hydroxy-2-(8-hydroxy-2-oxo-1,2-dihydroquinolin-5-yl)ethyl)amino)methyl)phenyl)acetamido)cyclobutyl)amino)-2-oxoethoxy)phenyl)-2-phenylacetate] | 0.3 to 3 nM | > 3 nM
O=C(COc1cccc([C@](O)(C(=O)OCC2CCN(Cc3ccccc3)CC2)c2ccccc2)c1)N1CC(C(=O)N2CCC(CNC[C@H](O)c3ccc(O)c4[nH]c(=O)ccc34)CC2)C1 [Compound 147, (1-Benzylpiperidin-4-yl)methyl (S)-2-hydroxy-2-(3-(2-(3-(4-((((R)-2-hydroxy-2-(8-hydroxy-2-oxo-1,2-dihydroquinolin-5-yl)ethyl)amino)methyl)piperidine-1-carbonyl)azetidin-1-yl)-2-oxoethoxy)phenyl)-2-phenylacetate] | 0.3 to 3 nM | < 0.3 nM
O=C(COc1cccc([C@](O)(C(=O)OCC2CCN(Cc3ccccc3)CC2)c2ccccc2)c1)N1CCC(C(=O)N2CCC(CNC[C@H](O)c3ccc(O)c4[nH]c(=O)ccc34)CC2)CC1 [Compound 148, (1-benzylpiperidin-4-yl)methyl (S)-2-hydroxy-2-(3-(2-(4-(4-((((R)-2-hydroxy-2-(8-hydroxy-2-oxo-1,2-dihydroquinolin-5-yl)ethyl)amino)methyl)piperidine-1-carbonyl)piperidin-1-yl)-2-oxoethoxy)phenyl)-2-phenylacetate] | 0.3 to 3 nM | < 0.3 nM
O=C(COc1cccc([C@](O)(C(=O)OCC2CCN(Cc3ccccc3)CC2)c2ccccc2)c1)N[C@H]1CC[C@H](C(=O)N2CCC(CNC[C@H](O)c3ccc(O)c4[nH]c(=O)ccc34)CC2)CC1 [Compound 149, (1-benzylpiperidin-4-yl)methyl (S)-2-hydroxy-2-(3-(2-(((1R,4S)-4-(4-((((R)-2-hydroxy-2-(8-hydroxy-2-oxo-1,2-dihydroquinolin-5-yl)ethyl)amino)methyl)piperidine-1-carbonyl)cyclohexyl)amino)-2-oxoethoxy)phenyl)-2-phenylacetate] | < 0.3 nM | 0.3 to 3 nM
O=C(COc1cccc([C@](O)(C(=O)OCC2CCN(Cc3ccccc3)CC2)c2ccccc2)c1)NCC(=O)N1CCC(CNC[C@H](O)c2ccc(O)c3[nH]c(=O)ccc23)CC1 [Compound 150, (1-benzylpiperidin-4-yl)methyl (S)-2-hydroxy-2-(3-(2-((2-(4-((((R)-2-hydroxy-2-(8-hydroxy-2-oxo-1,2-dihydroquinolin-5-yl)ethyl)amino)methyl)piperidin-1-yl)-2-oxoethyl)amino)-2-oxoethoxy)phenyl)-2-phenylacetate] | < 0.3 nM | < 0.3 nM
O=C(c1ccc(CCNC[C@H](O)c2ccc(O)c3[nH]c(=O)ccc23)cc1)N1CCC(C(=O)N2CCC(COc3cccc([C@](O)(C(=O)OCC4CCN(Cc5ccccc5)CC4)c4ccccc4)c3)CC2)CC1 [Compound 151, (1-Benzylpiperidin-4-yl)methyl (S)-2-hydroxy-2-(3-((1-(1-(4-(2-(((R)-2-hydroxy-2-(8-hydroxy-2-oxo-1,2-dihydroquinolin-5-yl)ethyl)amino)ethyl)benzoyl)piperidine-4-carbonyl)piperidin-4-yl)methoxy)phenyl)-2-phenylacetate] | < 0.3 nM | < 0.3 nM
O=C(NCC(=O)N1CCC(COc2cccc([C@](O)(C(=O)OCC3CCN(Cc4ccccc4)CC3)c3ccccc3)c2)CC1)c1ccc(CCNC[C@H](O)c2ccc(O)c3[nH]c(=O)ccc23)cc1 [Compound 152, (1-benzylpiperidin-4-yl)methyl (S)-2-hydroxy-2-(3-((1-((4-(2-(((R)-2-hydroxy-2-(8-hydroxy-2-oxo-1,2-dihydroquinolin-5-yl)ethyl)amino)ethyl)benzoyl)glycyl)piperidin-4-yl)methoxy)phenyl)-2-phenylacetate] | < 0.3 nM | 0.3 to 3 nM
COc1cc(C(=O)NCC(=O)N2CCC(COc3cccc([C@](O)(C(=O)OCC4CCN(Cc5ccccc5)CC4)c4ccccc4)c3)CC2)ccc1CNC[C@H](O)c1ccc(O)c2[nH]c(=O)ccc12 [Compound 153, (1-benzylpiperidin-4-yl)methyl (S)-2-hydroxy-2-(3-((1-((4-((((R)-2-hydroxy-2-(8-hydroxy-2-oxo-1,2-dihydroquinolin-5-yl)ethyl)amino)methyl)-3-methoxybenzoyl)glycyl)piperidin-4-yl)methoxy)phenyl)-2-phenylacetate] | < 0.3 nM | < 0.3 nM
